Source: patent US4564612A, “Condensed, seven-membered ring compounds and their use” (Takeda Chemical Industries, Ltd., priority 1983, dated 1986)
Counter-ions that a name gives are not always drawn. Like-named read-outs stand apart in the source and are kept apart here.

How the values were obtained:
[1] = system: hypertensive reaction by angiotensin I; assay: Effect against hypertensive activity of angiotensin I in rats, intravenous administration; type: in vivo, rats (Sprague-Dawley); conditions: 300 μg/kg i.v., male rats
Method: (§1) Effect of the Compounds of the Present Invention against Hypertensive Activity of Angiotensin I.
(§2) Male rats (Sprague-Dawley) weighing 300 to 400 g which were fed under free access to drinking water and feed were used as experimental animals. The rats were anesthetized with intraperitoneal administration of pentobarbital sodium (50 mg/kg) on the day before the test day and a polyethylene tube was inserted into each of the femoral artery for measurement of blood pressure and the femoral vein for injection of angiotensin I and II. And the tubes were fixed.
On the test day, an average blood pressure in the control phase was measured by an electric hemodynamometer (MPU-0.5-290-0-III model manufactured by NEC-Sanei, Japan) and recorded by a polygraph (NEC-Sanei, Type 365 or Nippon Kohden Type RM-45, and thereafter angiotensin I and then angiotensin II were injected through the femoral vein at a dose of 300 ng/kg and 100 ng/kg, respectively, to measure the hypertensive activity. […] In calculating the percent inhibition to the hypertensive activity of angiotensin I, the percent inhibitory value was corrected based on the variation with time in the hypertensive reaction by antiotensin II.

[2] = biological target: T1, Angiotensin I Converting Enzyme (ACE) (Oryctolagus cuniculus, UniProt P12822); assay: Inhibition of Angiotensin I Converting Enzyme (ACE), HHL substrate, modified Cushman method; type: biochemical; conditions: read-out: ACE inhibitory activity (%); for inhibition at 1 µM: concentration 1 μM
T1 sequence (P12822 34-1310): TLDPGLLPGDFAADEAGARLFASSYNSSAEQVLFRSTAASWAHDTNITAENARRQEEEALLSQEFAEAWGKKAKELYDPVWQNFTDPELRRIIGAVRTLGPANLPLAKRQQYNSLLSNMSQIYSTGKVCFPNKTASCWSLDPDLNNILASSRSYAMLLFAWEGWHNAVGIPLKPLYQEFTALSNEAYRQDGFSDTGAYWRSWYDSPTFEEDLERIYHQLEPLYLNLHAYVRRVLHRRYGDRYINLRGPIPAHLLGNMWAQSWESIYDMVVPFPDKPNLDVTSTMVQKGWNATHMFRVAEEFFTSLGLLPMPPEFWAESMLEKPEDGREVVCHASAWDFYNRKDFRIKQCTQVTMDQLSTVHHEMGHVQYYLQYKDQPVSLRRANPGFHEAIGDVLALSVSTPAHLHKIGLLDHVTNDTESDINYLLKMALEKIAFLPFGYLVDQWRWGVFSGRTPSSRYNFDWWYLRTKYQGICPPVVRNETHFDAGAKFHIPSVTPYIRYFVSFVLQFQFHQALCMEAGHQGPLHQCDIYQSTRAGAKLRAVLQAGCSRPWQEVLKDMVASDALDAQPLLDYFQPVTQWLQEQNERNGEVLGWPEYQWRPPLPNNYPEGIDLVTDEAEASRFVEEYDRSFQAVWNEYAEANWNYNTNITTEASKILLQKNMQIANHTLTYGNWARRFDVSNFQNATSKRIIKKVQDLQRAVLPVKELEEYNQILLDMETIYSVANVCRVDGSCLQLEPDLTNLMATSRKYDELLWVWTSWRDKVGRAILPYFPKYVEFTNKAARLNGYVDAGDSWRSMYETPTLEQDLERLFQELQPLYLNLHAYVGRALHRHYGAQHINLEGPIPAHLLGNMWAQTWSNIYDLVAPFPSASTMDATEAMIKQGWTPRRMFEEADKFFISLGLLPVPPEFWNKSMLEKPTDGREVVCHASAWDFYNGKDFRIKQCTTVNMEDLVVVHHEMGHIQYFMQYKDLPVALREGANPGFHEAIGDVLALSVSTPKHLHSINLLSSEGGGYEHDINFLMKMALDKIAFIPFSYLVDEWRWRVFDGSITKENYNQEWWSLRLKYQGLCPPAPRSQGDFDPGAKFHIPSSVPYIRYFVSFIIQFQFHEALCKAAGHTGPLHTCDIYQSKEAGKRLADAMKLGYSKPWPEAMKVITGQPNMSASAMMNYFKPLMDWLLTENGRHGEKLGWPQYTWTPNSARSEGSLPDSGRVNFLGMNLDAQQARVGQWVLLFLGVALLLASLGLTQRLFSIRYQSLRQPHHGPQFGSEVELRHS
Method: Experiment on Inhibition of Angiotensin I Converting Enzyme (ACE) by the Compounds of this Invention. […] That is, using hippuryl-L-histidyl-L-leucine (HHL) as the substrate, the ACE inhibitory activity was determined in terms of percent inhibition on the amount of hippuric acid produced by ACE when the compound of the present invention was added. […] In this experiment, a borate-HCl buffer solution containing dimethylsulfoxide at a concentration equal to that of the test solution was used as a control. After warming the solution at 37° C. for 1 hour, 150 μl of 1N hydrochloric acid was added to the solution to terminate the reaction. After 0.8 ml of ethyl acetate was added the solution was centrifuged at 11500 rpm for 2 minutes. A 0.5 ml aliquot was separated from the ethyl acetate layer and dried at a temperature below 40° C. under nitrogen gas streams. The residue was mixed thoroughly with 4.5 ml of distilled water, and the mixture was subjected to colorimetry at a wavelength of 228 nm.

[3] = system: hypertensive reaction by angiotensin I; assay: Effect against hypertensive activity of angiotensin I in rats, oral administration; type: in vivo, rats (Sprague-Dawley); conditions: male rats
Method: as §1
as §2, with “250” for “300”, “350” for “400”
On the test day, an average blood pressure in the control phase was measured by an electric hemodynamometer (MPU-0.5-290-0-III model manufactured by NEC-Sanei, Japan) and recorded by a polygraph (NEC-Sanei, Type 365 or Nippon Kohden Type RM-45), and thereafter angiotensin I and then angiotensin II were injected through the femoral vein at a dose of 300 ng/kg and 100 ng/kg, respectively, to measure the hypertensive activity. Then, 3 and 10 mg/kg of the compound of the present invention were administered orally as an aqueous solution or an aqueous gum arabic suspension, and 20, 60 and 120 minutes after the administration, angiotensin I and II were injected repeatedly to trace hypertensive reactions. In calculating the percent inhibition to the hypertensive activity of angiotensin I, the percent inhibitory value was corrected based on the variation with time in the hypertensive reaction by angiotensin II.

[4] = 10 mg/kg orally, after 120 min.

CCOC(=O)[C@H](CCCCCCN)N[C@H]1CSc2ccccc2N(CC(=O)O)C1=O [C2 H5]
Inhibition against hypertensive reaction by angiotensin I (%) ([1]; after 5 min): 97%
Inhibition against hypertensive reaction by angiotensin I (%) ([1]; after 10 min): 97%
Inhibition against hypertensive reaction by angiotensin I (%) ([1]; after 30 min): 100%
Inhibition against hypertensive reaction by angiotensin I (%) ([1]; after 60 min): 96%
Inhibition against hypertensive reaction by angiotensin I (%) ([1]; after 90 min): 87%
Inhibition against hypertensive reaction by angiotensin I (%) ([1]; after 120 min): 73%

CCOC(=O)[C@@H](CCc1ccccc1)N[C@H]1CSc2ccccc2N(CC(=O)O)C1=O [Example 5, 3(R)-[1(R)-ethoxycarbonyl-3-phenylpropyl]amino-4-oxo-2,3,4,5-tetrahydro-1,5-benzothiazepine-5-acetic acid hydrochloride]
inhibition at 0.1 µM ([2]; concentration 0.1 μM): 40%
inhibition at 1 µM [2]: 84%

CCOC(=O)C(CCc1ccccc1)N[C@H]1CSc2ccccc2N(CC(=O)O)C1=O (some centres unmarked) [Example 6]
inhibition at 0.1 µM ([2]; concentration 0.1 μM): 48%
inhibition at 1 µM [2]: 85%

CCOC(=O)[C@H](CCc1ccccc1)N[C@H]1CSc2ccccc2N(CC(=O)O)C1=O.Cl [Example 7, 3(R)-[1(S)-ethoxycarbonyl-3-phenylpropyl]amino-4-oxo-2,3,4,5-tetrahydro-1,5-benzothiazepine-5-acetic acid hydrochloride]
inhibition at 0.1 µM ([2]; concentration 0.1 μM): 53%
inhibition at 1 µM [2]: 86%
Inhibition against hypertensive reaction by angiotensin I (%) ([3]; 3 mg/kg orally, after 20 min.): 85%
Inhibition against hypertensive reaction by angiotensin I (%) ([3]; 3 mg/kg orally, after 60 min.): 51%
Inhibition against hypertensive reaction by angiotensin I (%) ([3]; 3 mg/kg orally, after 120 min.): 27%
Inhibition against hypertensive reaction by angiotensin I (%) ([3]; 10 mg/kg orally, after 20 min.): 85%
Inhibition against hypertensive reaction by angiotensin I (%) ([3]; 10 mg/kg orally, after 60 min.): 68%
Inhibition against hypertensive reaction by angiotensin I (%) [3, 4]: 51%

CCOC(=O)[C@H](CCC1CCCCC1)N[C@H]1CSc2ccccc2N(CC(=O)O)C1=O.Cl [Example 9, 3(R)-[1(S)-ethoxycarbonyl-3-cyclohexylpropyl]amino-4-oxo-2,3,4,5-tetrahydro-1,5-benzothiazepine-5-acetic acid hydrochloride]
inhibition at 0.1 µM ([2]; concentration 0.1 μM): 83%
inhibition at 1 µM [2]: 95%
Inhibition against hypertensive reaction by angiotensin I (%) ([3]; 3 mg/kg orally, after 20 min.): 66%
Inhibition against hypertensive reaction by angiotensin I (%) ([3]; 3 mg/kg orally, after 60 min.): 36%
Inhibition against hypertensive reaction by angiotensin I (%) ([3]; 3 mg/kg orally, after 120 min.): 12%
Inhibition against hypertensive reaction by angiotensin I (%) ([3]; 10 mg/kg orally, after 20 min.): 92%
Inhibition against hypertensive reaction by angiotensin I (%) ([3]; 10 mg/kg orally, after 60 min.): 72%
Inhibition against hypertensive reaction by angiotensin I (%) [3, 4]: 68%

O=C(O)CN1C(=O)[C@@H](N[C@H](CCc2ccccc2)C(=O)O)CSc2ccccc21 [Example 12, 3(R)-[1(R)-carboxy-3-phenylpropyl]amino-4-2,3,4,5-tetrahydro-1,5-benzothiazepine-5-acetic acid disodium salt]
inhibition at 1 µM [2]: 50%
inhibition at 10 µM ([2]; concentration 10 μM): 86%

O=C(O)CN1C(=O)[C@@H](N[C@@H](CCc2ccccc2)C(=O)O)CSc2ccccc21 [Example 13, 3(R)-[1(S)-carboxy-3-phenylpropyl]amino-4-oxo-2,3,4,5-tetrahydro-1,5-benzothiazepine-5-acetic acid monosodium salt]
inhibition at 0.01 µM [2]: 46%
inhibition at 0.1 µM [2]: 91%

O=C(O)CN1C(=O)[C@@H](N[C@@H](CCC2CCCCC2)C(=O)O)CSc2ccccc21 [Example 50, 3(R)-[1(S)-carboxy-3-cyclohexylpropyl]amino-4-oxo-2,3,4,5-tetrahydro-1,5-benzothiazepine-5-acetic acid]
inhibition at 0.01 µM ([2]; concentration 0.01 μM): 77%
inhibition at 0.1 µM ([2]; concentration 0.1 μM): 96%

NCCCC[C@H](N[C@H]1CSc2ccccc2N(CC(=O)O)C1=O)C(=O)O [Example 60, 3(R)-[5-amino-1(S)-carboxypentyl]amino-4-oxo-2,3,4,5-tetrahydro-1,5-benzothiazepine-5-acetic acid]
inhibition at 0.1 µM ([2]; concentration 0.1 μM): 82%
inhibition at 1 µM [2]: 98%

O=C(O)CN1C(=O)[C@@H](N[C@@H](CCCCNC2CCCCC2)C(=O)O)CSc2ccccc21 [Example 69, 3(R)-[1(S)-carboxy-5-cyclohexylaminopentyl]amino-4-oxo-2,3,4,5-tetrahydro-1,5-benzothiazepine-5-acetic acid]
inhibition at 0.1 µM ([2]; concentration 0.1 μM): 93%
inhibition at 1 µM [2]: 100%

NCCCCCC[C@H](N[C@H]1CSc2ccccc2N(CC(=O)O)C1=O)C(=O)O [Example 73, 3(R)-[7-amino-1(S)-carboxyheptyl]amino-4-oxo-2,3,4,5-tetrahydro-1,5-benzothiazepine-5-acetic acid]
inhibition at 0.1 µM ([2]; concentration 0.1 μM): 96%
inhibition at 1 µM [2]: 100%

NCCCCCC[C@H](N[C@H]1CSc2ccccc2N(CC(=O)O)C1=O)C(=O)O [H]
Inhibition against hypertensive reaction by angiotensin I (%) ([1]; after 5 min): 100%
Inhibition against hypertensive reaction by angiotensin I (%) ([1]; after 10 min): 97%
Inhibition against hypertensive reaction by angiotensin I (%) ([1]; after 30 min): 97%
Inhibition against hypertensive reaction by angiotensin I (%) ([1]; after 60 min): 91%
Inhibition against hypertensive reaction by angiotensin I (%) ([1]; after 90 min): 78%
Inhibition against hypertensive reaction by angiotensin I (%) ([1]; after 120 min): 48%
